Values of other authors in patent publication US12599677B2, “Targeted PH sensitive liposomes” (Northwestern University, priority 2020, dated 2026).

solubility in water: low solubility in water
SMILES: C=C1CC[C@@H]2[C@](C)(CO)[C@H](O)CC[C@@]2(C)[C@@H]1C/C=C1/C(=O)OC[C@H]1O [andrographolide]
